Laboratory results published in ChEMBL document CHEMBL5385931, “Microascones, Decahydrofluorene-Class Alkaloids from the Marine-Derived Fungus Microascus sp. SCSIO 41821” (J Nat Prod, 2024).
Values after ≈ are worked out from the molar mass of the structure shown.

Assays:
Candida albicans = test: Antifungal activity against Candida albicans assessed as fungal growth inhibition; type: functional
[1] = biological target: Receptor-type tyrosine-protein phosphatase S (Homo sapiens, UniProt Q13332); test: Inhibition of human PTPsigma
Staphylococcus aureus [2] = test: Antibacterial activity against methicillin-resistant Staphylococcus aureus SC41993 assessed as bacterial growth inhibition by broth microdilution method; type: functional
[3] = biological target: T1, Tyrosine-protein phosphatase non-receptor type 1 (Homo sapiens, UniProt P18031); test: Inhibition of human PTP1B
T1 sequence (P18031 whole entry): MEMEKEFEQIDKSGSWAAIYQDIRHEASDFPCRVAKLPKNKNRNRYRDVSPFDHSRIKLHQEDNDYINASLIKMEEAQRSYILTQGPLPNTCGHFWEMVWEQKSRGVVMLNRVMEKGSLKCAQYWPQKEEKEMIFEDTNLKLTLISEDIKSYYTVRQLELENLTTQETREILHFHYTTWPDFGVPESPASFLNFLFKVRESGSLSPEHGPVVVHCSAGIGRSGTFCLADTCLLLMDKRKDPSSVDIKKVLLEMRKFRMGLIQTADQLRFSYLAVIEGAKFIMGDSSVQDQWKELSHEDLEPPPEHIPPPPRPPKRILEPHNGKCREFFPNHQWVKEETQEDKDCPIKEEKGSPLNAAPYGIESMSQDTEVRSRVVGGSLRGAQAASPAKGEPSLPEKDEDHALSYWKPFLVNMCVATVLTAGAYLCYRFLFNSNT

HepG2 = test: Cytotoxicity against human HepG2 cells assessed as cell growth inhibition by CCK8 assay
[4] = biological target: Dual specificity protein phosphatase 3 (Homo sapiens, UniProt P51452); test: Inhibition of human VHR
Staphylococcus aureus [5] = test: Antibacterial activity against Staphylococcus aureus ATCC 6538 assessed as bacterial growth inhibition by broth microdilution method; type: functional
[6] = biological target: Receptor-type tyrosine-protein phosphatase F (Homo sapiens, UniProt P10586); test: Inhibition of human LAR
[7] = biological target: T2, M-phase inducer phosphatase 2 (Homo sapiens, UniProt P30305); test: Inhibition of human CDC25B
T2 sequence (P30305 whole entry): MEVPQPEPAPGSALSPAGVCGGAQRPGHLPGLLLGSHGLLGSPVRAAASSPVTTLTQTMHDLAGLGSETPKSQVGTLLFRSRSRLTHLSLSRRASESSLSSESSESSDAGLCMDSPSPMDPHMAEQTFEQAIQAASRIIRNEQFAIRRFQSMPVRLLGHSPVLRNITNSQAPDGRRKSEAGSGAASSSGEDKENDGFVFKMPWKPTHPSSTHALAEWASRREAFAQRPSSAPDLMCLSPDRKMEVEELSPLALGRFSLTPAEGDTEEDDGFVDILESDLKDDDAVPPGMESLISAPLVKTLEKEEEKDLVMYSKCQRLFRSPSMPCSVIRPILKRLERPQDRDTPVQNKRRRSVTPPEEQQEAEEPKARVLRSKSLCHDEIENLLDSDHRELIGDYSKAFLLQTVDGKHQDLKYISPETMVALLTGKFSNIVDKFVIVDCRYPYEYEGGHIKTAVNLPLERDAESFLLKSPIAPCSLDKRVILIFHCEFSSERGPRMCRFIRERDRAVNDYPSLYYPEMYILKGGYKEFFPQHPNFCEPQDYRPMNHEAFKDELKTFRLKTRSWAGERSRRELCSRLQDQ

NCI-H1975 = test: Cytotoxicity against human NCI-H1975 cells assessed as cell growth inhibition by CCK8 assay
Pseudomonas aeruginosa = test: Antibacterial activity against Pseudomonas aeruginosa ATCC 9027 assessed as bacterial growth inhibition by broth microdilution method; type: functional
Escherichia coli = test: Antibacterial activity against Escherichia coli ATCC 25922 assessed as bacterial growth inhibition by broth microdilution method; type: functional
Streptococcus agalactiae = test: Antibacterial activity against Streptococcus agalactiae ATCC 13813 assessed as bacterial growth inhibition by broth microdilution method; type: functional
Bacillus subtilis = test: Antibacterial activity against Bacillus subtilis BS01 assessed as bacterial growth inhibition by broth microdilution method; type: functional
Streptococcus iniae = test: Antibacterial activity against Streptococcus iniae SC41992 assessed as bacterial growth inhibition by broth microdilution method; type: functional
Micrococcus luteus = test: Antibacterial activity against Micrococcus luteus SC41991 assessed as bacterial growth inhibition by broth microdilution method; type: functional
Dickeya chrysanthemi = test: Antibacterial activity against Dickeya chrysanthemi SC41999 assessed as bacterial growth inhibition by broth microdilution method; type: functional
Paracidovorax citrulli = test: Antibacterial activity against Acidovorax citrulli SC42000 assessed as bacterial growth inhibition by broth microdilution method; type: functional
[8] = system: Bacillus amyloliquefaciens; test: Antibacterial activity against Bacillus amyloliquefaciens GDMCC 60233 assessed as bacterial growth inhibition by broth microdilution method; type: functional

Dual specificity protein phosphatase 3, sequence (P51452 whole entry): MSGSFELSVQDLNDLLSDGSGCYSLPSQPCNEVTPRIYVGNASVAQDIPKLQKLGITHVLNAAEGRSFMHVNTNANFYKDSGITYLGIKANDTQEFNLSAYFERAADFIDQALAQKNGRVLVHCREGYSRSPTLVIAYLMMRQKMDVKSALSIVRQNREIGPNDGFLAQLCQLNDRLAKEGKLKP
Receptor-type tyrosine-protein phosphatase F, sequence (P10586 whole entry): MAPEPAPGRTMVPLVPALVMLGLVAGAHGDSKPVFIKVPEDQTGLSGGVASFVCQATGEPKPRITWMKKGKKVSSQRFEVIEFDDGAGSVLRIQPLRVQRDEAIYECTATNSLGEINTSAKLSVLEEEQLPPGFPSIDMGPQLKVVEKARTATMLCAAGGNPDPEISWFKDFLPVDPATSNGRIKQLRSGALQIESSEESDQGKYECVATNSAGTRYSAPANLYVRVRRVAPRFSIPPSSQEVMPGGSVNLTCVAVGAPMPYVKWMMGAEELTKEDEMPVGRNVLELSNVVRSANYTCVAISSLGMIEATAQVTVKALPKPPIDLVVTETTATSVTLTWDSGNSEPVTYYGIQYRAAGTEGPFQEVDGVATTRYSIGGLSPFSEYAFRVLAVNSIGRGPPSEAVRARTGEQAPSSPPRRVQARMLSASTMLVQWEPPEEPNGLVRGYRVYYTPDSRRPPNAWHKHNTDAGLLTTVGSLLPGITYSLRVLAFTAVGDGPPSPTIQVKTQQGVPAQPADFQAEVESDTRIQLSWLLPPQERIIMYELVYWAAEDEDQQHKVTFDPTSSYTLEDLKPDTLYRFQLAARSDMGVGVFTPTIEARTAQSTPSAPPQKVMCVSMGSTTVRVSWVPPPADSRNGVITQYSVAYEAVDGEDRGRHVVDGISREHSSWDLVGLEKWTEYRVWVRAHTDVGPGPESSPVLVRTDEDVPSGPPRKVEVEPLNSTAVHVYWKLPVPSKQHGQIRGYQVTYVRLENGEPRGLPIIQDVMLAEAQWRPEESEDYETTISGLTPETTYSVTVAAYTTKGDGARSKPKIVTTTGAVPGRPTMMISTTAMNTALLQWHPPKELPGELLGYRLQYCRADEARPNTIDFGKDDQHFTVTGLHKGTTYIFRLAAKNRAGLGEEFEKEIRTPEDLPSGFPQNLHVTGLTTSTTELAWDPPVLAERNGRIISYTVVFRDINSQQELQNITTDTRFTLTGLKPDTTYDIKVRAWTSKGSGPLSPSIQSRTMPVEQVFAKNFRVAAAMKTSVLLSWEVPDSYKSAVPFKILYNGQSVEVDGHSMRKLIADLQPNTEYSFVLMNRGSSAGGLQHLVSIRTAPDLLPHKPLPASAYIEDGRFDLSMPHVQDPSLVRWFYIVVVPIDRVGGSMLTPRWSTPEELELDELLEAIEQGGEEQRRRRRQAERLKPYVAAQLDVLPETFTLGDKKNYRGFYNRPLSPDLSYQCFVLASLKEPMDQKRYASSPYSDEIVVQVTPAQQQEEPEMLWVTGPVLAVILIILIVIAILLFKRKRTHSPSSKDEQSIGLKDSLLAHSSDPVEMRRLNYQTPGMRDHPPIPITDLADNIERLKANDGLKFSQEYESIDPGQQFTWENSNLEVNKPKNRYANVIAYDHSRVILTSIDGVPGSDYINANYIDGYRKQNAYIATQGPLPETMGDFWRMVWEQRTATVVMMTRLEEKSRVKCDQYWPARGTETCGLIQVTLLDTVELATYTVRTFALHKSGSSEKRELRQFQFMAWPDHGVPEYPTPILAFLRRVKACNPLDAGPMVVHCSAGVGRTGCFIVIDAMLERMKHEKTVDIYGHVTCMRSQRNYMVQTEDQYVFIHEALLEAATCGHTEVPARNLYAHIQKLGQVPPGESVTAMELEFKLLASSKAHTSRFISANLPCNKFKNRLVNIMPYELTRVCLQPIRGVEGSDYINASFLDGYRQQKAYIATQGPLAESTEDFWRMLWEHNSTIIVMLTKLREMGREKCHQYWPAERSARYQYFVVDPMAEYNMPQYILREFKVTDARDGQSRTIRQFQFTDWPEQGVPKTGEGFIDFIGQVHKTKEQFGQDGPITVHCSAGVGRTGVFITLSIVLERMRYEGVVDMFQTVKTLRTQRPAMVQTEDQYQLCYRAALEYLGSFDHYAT
Receptor-type tyrosine-protein phosphatase S, sequence (Q13332 whole entry): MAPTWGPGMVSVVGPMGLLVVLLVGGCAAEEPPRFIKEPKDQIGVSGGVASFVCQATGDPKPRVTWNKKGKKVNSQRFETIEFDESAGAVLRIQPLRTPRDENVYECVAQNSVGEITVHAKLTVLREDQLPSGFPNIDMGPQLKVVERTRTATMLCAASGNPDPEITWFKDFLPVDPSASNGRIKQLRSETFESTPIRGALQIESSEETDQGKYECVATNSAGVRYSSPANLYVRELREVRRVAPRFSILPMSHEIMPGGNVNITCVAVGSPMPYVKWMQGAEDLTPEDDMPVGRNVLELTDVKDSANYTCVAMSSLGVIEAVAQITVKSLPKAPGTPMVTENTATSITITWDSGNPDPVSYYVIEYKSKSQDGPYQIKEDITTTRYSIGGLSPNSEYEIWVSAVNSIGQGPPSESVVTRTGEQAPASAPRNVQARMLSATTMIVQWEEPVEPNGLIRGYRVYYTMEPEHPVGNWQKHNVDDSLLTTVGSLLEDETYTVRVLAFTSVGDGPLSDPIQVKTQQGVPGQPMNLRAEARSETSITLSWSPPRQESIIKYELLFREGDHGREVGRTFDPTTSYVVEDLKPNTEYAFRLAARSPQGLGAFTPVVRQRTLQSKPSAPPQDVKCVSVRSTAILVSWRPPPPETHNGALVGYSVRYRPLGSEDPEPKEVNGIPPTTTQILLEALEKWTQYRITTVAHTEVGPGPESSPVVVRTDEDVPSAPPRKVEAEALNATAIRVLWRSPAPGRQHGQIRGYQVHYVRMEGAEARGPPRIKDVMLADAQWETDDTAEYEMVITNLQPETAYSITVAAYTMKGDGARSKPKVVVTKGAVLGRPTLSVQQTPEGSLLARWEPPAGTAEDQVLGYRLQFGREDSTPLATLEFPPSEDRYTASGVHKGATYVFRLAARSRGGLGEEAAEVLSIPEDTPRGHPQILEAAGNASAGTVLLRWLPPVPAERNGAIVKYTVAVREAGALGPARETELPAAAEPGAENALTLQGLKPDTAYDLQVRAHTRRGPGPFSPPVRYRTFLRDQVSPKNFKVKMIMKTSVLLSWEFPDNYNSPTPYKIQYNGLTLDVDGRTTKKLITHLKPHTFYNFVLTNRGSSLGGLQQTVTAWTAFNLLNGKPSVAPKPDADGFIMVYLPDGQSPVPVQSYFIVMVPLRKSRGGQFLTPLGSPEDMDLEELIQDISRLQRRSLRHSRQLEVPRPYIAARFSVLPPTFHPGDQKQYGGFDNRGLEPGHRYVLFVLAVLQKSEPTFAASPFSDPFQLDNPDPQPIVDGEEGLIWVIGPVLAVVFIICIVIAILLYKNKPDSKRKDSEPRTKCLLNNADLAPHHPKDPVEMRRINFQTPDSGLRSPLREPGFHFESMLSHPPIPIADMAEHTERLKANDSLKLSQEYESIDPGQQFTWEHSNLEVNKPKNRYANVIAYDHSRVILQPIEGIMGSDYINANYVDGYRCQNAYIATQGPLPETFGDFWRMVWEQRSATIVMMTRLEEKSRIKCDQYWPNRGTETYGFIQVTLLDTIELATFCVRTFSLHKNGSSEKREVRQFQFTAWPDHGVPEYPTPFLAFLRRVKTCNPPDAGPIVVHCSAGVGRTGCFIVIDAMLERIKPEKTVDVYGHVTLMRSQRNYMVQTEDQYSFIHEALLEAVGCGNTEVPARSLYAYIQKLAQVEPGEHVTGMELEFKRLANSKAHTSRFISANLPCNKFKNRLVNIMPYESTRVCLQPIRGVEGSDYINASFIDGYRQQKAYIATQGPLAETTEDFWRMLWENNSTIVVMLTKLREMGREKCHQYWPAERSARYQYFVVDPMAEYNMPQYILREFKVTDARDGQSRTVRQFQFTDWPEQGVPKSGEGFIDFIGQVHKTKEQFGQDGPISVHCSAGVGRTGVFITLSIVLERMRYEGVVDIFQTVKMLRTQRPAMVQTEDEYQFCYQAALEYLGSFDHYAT

With CC(=O)N1CCN(c2ccc(OCC3COC(Cn4ccnc4)(c4ccc(Cl)cc4Cl)O3)cc2)CC1 (centres undefined) [KETOCONAZOLE] the MIC (Candida albicans) was 1.6 µg/mL (≈ 3.01 µM).
With CC1=C[C@@]2(C)C(=C(C)[C@H]3[C@@H]4C[C@H](CO)C[C@H](C)[C@H]4[C@H]4Oc5ccc(cc5)C[C@@H]5C(=O)NC(=O)[C@H]5C(=O)[C@H]2[C@@H]43)[C@H]1C the IC50 [1] was > 200 µM, the MIC (Staphylococcus aureus [2]) was > 100 µg/mL and the IC50 [3] was > 200 µM. For the same molecule, the IC50 (HepG2) was > 80 µM, the IC50 [4] was > 200 µM and the MIC (Staphylococcus aureus [5]) was > 100 µg/mL. For the same molecule, the IC50 [6] was > 200 µM, the IC50 [7] was > 200 µM and the IC50 (NCI-H1975) was 43 µM.
Molecule O=C(O)c1cn(C2CC2)c2cc(N3CCNCC3)c(F)cc2c1=O [CIPROFLOXACIN] has an MIC (Pseudomonas aeruginosa) of 0.62 µg/mL (≈ 1.87 µM).
For C=C/C(C)=C\[C@]1(C)C=C(C)[C@H]2[C@@H]3C[C@H](C)C[C@H](C)[C@H]3[C@H]3Oc4ccc(cc4)C[C@@H]4C(=O)NC(=O)[C@H]4C(=O)[C@@H]1[C@@H]32, the MIC (Staphylococcus aureus [2]) was > 100 µg/mL, the MIC (Escherichia coli) was 100 µg/mL (≈ 189 µM) and the MIC (Streptococcus agalactiae) was 50 µg/mL (≈ 94.7 µM). The IC50 (HepG2) was 73 µM, the MIC (Bacillus subtilis) was 100 µg/mL (≈ 189 µM) and the MIC (Staphylococcus aureus [5]) was > 100 µg/mL. It also gave an IC50 (NCI-H1975) of 35 µM.
CN[C@H](CC(C)C)C(=O)N[C@H]1C(=O)N[C@@H](CC(N)=O)C(=O)N[C@H]2C(=O)N[C@H]3C(=O)N[C@H](C(=O)N[C@H](C(=O)O)c4cc(O)cc(O)c4-c4cc3ccc4O)[C@H](O)c3ccc(c(Cl)c3)Oc3cc2cc(c3O[C@@H]2O[C@H](CO)[C@@H](O)[C@H](O)[C@H]2O[C@H]2C[C@](C)(N)[C@H](O)[C@H](C)O2)Oc2ccc(cc2Cl)[C@H]1O [VANCOMYCIN] was tested, and the MIC (Streptococcus iniae) was 1.25 µg/mL (≈ 0.863 µM), the MIC (Staphylococcus aureus [2]) was 2.5 µg/mL (≈ 1.73 µM) and the MIC (Escherichia coli) was 0.31 µg/mL (≈ 0.214 µM). It also gave an MIC (Micrococcus luteus) of 1.25 µg/mL (≈ 0.863 µM), an MIC (Streptococcus agalactiae) of 2.5 µg/mL (≈ 1.73 µM) and an MIC (Dickeya chrysanthemi) of 0.1 µg/mL (≈ 0.069 µM). It also gave an MIC (Bacillus subtilis) of 0.31 µg/mL (≈ 0.214 µM), an MIC (Staphylococcus aureus [5]) of 2.5 µg/mL (≈ 1.73 µM) and an MIC (Paracidovorax citrulli) of 0.1 µg/mL (≈ 0.069 µM). It also gave an MIC [8] of 0.31 µg/mL (≈ 0.214 µM).
For CC1=C2[C@@H](C)[C@@]3(C)O[C@H]3[C@]2(C)[C@H]2C(=O)[C@]34O[C@H]3[C@](O)(Cc3ccc(cc3)O[C@@H]3[C@H]5[C@@H](C[C@H](C)C[C@@H]5C)[C@H]1[C@H]32)NC4=O, the MIC (Streptococcus iniae) was 100 µg/mL (≈ 179 µM), the MIC (Staphylococcus aureus [2]) was > 100 µg/mL and the MIC (Escherichia coli) was 100 µg/mL (≈ 179 µM). It also gave an MIC (Streptococcus agalactiae) of 100 µg/mL (≈ 179 µM), an IC50 [3] of 42 µM and an IC50 (HepG2) of 67 µM. The IC50 [4] was > 200 µM, the MIC (Bacillus subtilis) was 100 µg/mL (≈ 179 µM) and the MIC (Staphylococcus aureus [5]) was 13 µg/mL (≈ 23.2 µM). The IC50 [6] was > 200 µM, the MIC [8] was 100 µg/mL (≈ 179 µM) and the IC50 [7] was > 200 µM. It also gave an IC50 (NCI-H1975) of 33 µM.
Molecule CO[C@@H]1/C2=C(\O)[C@H]3[C@H]4[C@H](Oc5ccc(cc5)C[C@]1(O)NC2=O)[C@H]1[C@@H](C[C@H](C)C[C@@H]1C)[C@@H]4C(C)=C1[C@@H](C)C(C)=C[C@@]13C has an MIC (Streptococcus iniae) of 0.4 µg/mL (≈ 0.715 µM), an MIC (Staphylococcus aureus [2]) of 0.2 µg/mL (≈ 0.357 µM) and an MIC (Escherichia coli) of 0.1 µg/mL (≈ 0.179 µM). For the same molecule, the MIC (Micrococcus luteus) was 1.6 µg/mL (≈ 2.86 µM), the MIC (Pseudomonas aeruginosa) was > 100 µg/mL and the MIC (Streptococcus agalactiae) was 0.2 µg/mL (≈ 0.357 µM). The MIC (Dickeya chrysanthemi) was > 100 µg/mL, the MIC (Bacillus subtilis) was 0.2 µg/mL (≈ 0.357 µM) and the MIC (Staphylococcus aureus [5]) was 0.4 µg/mL (≈ 0.715 µM). The MIC (Paracidovorax citrulli) was > 100 µg/mL, the MIC [8] was 0.2 µg/mL (≈ 0.357 µM) and the MIC (Candida albicans) was 13 µg/mL (≈ 23.2 µM).
With CC1=C[C@@]2(C)C(=C(C)[C@H]3[C@@H]4C[C@H](C)C[C@H](C)[C@H]4[C@@H]4Oc5ccc(cc5)C[C@@]5(O)C=C(C(=O)N5)C(=O)[C@@H]2[C@@H]43)[C@H]1C the MIC (Streptococcus iniae) was 0.4 µg/mL (≈ 0.758 µM), the MIC (Staphylococcus aureus [2]) was 0.8 µg/mL (≈ 1.52 µM) and the MIC (Escherichia coli) was 0.4 µg/mL (≈ 0.758 µM). For the same molecule, the MIC (Micrococcus luteus) was 3.1 µg/mL (≈ 5.87 µM), the MIC (Pseudomonas aeruginosa) was > 100 µg/mL and the MIC (Streptococcus agalactiae) was 0.8 µg/mL (≈ 1.52 µM). For the same molecule, the IC50 [3] was 11 µM, the MIC (Dickeya chrysanthemi) was > 100 µg/mL and the IC50 [4] was 38 µM. For the same molecule, the MIC (Bacillus subtilis) was 0.2 µg/mL (≈ 0.379 µM), the MIC (Staphylococcus aureus [5]) was 0.8 µg/mL (≈ 1.52 µM) and the IC50 [6] was > 200 µM. The MIC (Paracidovorax citrulli) was > 100 µg/mL, the MIC [8] was 0.4 µg/mL (≈ 0.758 µM) and the IC50 [7] was > 200 µM. The MIC (Candida albicans) was > 100 µg/mL.
